Measured values reported in US12612465B2, “Formulations comprising PCSK9 specific monoclonal antibodies” (Amgen Inc., priority 2012, dated 2026).

Molecular target: PCSK9 (Homo sapiens, UniProt Q8NBP7)
Assay: 12 week monotherapy dose-ranging study, Framingham risk 10% or less (Example 24)
Assay type: in vivo
Parameters: endogenous in cells; host or cells: human subjects, in vivo
Method: Ezetimibe was not blinded. The end-of-study visit and the last estimation of lipids was at week 12 for subjects on Q4W IP schedule or on ezetimibe and week 14 for subjects on Q2W IP schedule.
Males and females, ≥18 to ≤75 years of age, were eligible for this study. Fasting LDL-C was ≥100 mg/dL (2.6 mmol/L) and ≤190 mg/dL (4.9 mmol/L) and fasting triglycerides ≤400 mg/dL (4.5 mmol/L) by central laboratory at screening.
The primary endpoint was the percent change from baseline in LDL-C at week 12. Secondary endpoints included percent changes in apolipoprotein B (ApoB), lipoprotein (a) (Lp(a)), and in the ratio of total cholesterol to high-density lipoprotein (HDL)-C. Tolerability and safety were also evaluated.

Sequence of PCSK9 (Q8NBP7 153-692): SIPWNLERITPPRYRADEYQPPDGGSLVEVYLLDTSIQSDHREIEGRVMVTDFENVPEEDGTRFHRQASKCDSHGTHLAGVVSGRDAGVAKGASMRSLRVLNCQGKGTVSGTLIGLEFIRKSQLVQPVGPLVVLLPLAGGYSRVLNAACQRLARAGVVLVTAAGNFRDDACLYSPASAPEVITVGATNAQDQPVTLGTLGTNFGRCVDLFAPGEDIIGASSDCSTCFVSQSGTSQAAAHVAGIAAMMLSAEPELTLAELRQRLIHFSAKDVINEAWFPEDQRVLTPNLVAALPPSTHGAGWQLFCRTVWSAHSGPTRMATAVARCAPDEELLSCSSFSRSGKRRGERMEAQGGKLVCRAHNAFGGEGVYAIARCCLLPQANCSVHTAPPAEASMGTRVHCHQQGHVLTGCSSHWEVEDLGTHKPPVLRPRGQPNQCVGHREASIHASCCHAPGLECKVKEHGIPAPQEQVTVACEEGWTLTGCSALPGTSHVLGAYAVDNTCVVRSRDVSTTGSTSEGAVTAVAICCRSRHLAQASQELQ

Least squares mean percent change from baseline in LDL-C, week 12 (Ezetimibe QD (N = 45)): −14.26%
percent change from baseline in LDL-C (ezetimibe QD PO, week 12, final data): 14%
Structure (SMILES): O=C1[C@H](CC[C@H](O)c2ccc(F)cc2)[C@@H](c2ccc(O)cc2)N1c1ccc(F)cc1 [Ezetimibe, ezetimibe, reference compound]
